ChEMBL document CHEMBL6134853, “Design, Synthesis, and Biological Evaluation of Pyrrolo[1,2-a]quinoxalin-4(5H)-one Derivatives as Potent and Orally Available Noncovalent Bruton's Tyrosine Kinase (BTK) Inhibitors” (J Med Chem, 2025)
The source made the active and inactive calls. The rule behind the calls is not given here.

Tests used:
[1] = target: T1, Tyrosine-protein kinase BTK (Homo sapiens, UniProt Q06187); test: Inhibition of BTK (unknown origin) by HTRF analysis
Ramos = test: Antiproliferative activity against human Ramos cells expressing BTK assessed as inhibition of cell proliferation incubated for 48 hrs by CCK-8 assay; format: functional, cell-based
[2] = MRT (0 to 5 hrs) in male Sprague-Dawley rat at 10 mg/kg, po measured up to 5 hrs by LC-MS/MS analysis; format: ADME, organism-based; conditions: in vivo
[3] = target: T1, Tyrosine-protein kinase BTK; test: Inhibition of BTK (unknown origin) at 100 nM relative to control
[4] = target: T1, Tyrosine-protein kinase BTK; test: Inhibition of BTK phosphorylation at Y223 residue in anti-IgM induced human Ramos cells preincubated with compound for 4 hrs followed by anti-IgM induction and measured after 15 mins by Western blot analysis; format: cell-based; conditions: dose <= 1.0 µM, time 255.0 min
[5] = target: T2, 1-phosphatidylinositol 4,5-bisphosphate phosphodiesterase gamma-2 (Homo sapiens) (UniProt P16885); test: Inhibition of PLCgamma2 phosphorylation at Y1217 residue in anti-IgM induced human Ramos cells preincubated with compound for 4 hrs followed by anti-IgM induction and measured after 15 mins by Western blot analysis; format: cell-based; conditions: dose <= 1.0 µM, time […]
T2 sequence (whole entry): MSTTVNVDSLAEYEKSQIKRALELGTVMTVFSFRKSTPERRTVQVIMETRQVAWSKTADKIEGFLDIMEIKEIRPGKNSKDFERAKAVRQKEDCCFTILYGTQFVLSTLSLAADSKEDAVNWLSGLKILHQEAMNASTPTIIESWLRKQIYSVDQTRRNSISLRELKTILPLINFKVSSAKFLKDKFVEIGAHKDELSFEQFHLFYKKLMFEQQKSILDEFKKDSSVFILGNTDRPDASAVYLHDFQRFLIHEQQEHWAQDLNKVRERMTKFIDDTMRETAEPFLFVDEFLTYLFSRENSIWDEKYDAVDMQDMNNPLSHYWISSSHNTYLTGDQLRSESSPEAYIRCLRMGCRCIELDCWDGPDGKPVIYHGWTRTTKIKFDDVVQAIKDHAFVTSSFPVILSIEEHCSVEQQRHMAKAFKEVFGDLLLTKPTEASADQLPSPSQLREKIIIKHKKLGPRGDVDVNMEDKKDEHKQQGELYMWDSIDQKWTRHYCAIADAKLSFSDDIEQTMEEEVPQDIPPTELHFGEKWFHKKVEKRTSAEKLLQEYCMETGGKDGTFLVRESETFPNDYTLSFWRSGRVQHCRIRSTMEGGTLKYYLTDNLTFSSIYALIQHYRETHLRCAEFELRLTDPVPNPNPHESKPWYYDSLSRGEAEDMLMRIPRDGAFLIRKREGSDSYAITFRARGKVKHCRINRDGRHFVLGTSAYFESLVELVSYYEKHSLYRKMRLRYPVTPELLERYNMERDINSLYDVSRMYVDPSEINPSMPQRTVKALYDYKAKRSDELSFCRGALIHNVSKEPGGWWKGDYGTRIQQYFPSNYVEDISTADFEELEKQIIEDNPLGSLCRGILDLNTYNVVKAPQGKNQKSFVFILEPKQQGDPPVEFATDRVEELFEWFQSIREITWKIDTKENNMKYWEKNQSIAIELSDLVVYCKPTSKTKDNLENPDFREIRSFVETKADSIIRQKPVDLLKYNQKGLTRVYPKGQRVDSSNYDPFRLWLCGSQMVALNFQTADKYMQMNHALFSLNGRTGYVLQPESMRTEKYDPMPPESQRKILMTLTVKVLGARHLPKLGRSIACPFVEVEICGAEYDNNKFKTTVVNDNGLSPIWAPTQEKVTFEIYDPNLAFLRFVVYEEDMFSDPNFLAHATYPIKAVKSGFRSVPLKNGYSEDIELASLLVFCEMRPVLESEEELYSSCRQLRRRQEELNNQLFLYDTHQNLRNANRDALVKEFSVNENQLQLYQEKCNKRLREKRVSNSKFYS

U-937 [6] = test: Induction of apoptosis in human U-937 cells incubated for 2 days by Annexin V/PI staining based flow cytometry analysis; format: functional, cell-based; conditions: dose 1-10 µM, time 2.0 day
U-937 [7] = test: Antitumor activity against human U-937 cells xenografted in BALB/c mouse assessed as tumor growth inhibition at 100 mg/kg, po administered once a day for 14 days; format: functional; conditions: U-937, 336 h, time 14 day, read-out: TGI
[8] = Toxicity in BALB/c mouse xenografted with human U-937 cells assessed as parenchymal injury in heart at 50 to 100 mg/kg, po administered once a day for 14 days by H and E staining based analysis; format: organism-based; conditions: in vivo, 336 h, dose 50-100 mg/kg, time 14 day
[9] = Toxicity in BALB/c mouse xenografted with human U-937 cells assessed as parenchymal injury in lung at 50 to 100 mg/kg, po administered once a day for 14 days by H and E staining based analysis; format: organism-based; conditions: in vivo, 336 h, dose 50-100 mg/kg, time 14 day
[10] = Toxicity in BALB/c mouse xenografted with human U-937 cells assessed as inflammatory infiltration in liver at 50 to 100 mg/kg, po administered once a day for 14 days by H and E staining based analysis; format: organism-based; conditions: in vivo, 336 h, dose 50-100 mg/kg, time 14 day
[11] = Toxicity in BALB/c mouse xenografted with human U-937 cells assessed as inflammatory infiltration in kidney at 50 to 100 mg/kg, po administered once a day for 14 days by H and E staining based analysis; format: organism-based; conditions: in vivo, 336 h, dose 50-100 mg/kg, time 14 day

T1 sequence (Q06187 whole entry): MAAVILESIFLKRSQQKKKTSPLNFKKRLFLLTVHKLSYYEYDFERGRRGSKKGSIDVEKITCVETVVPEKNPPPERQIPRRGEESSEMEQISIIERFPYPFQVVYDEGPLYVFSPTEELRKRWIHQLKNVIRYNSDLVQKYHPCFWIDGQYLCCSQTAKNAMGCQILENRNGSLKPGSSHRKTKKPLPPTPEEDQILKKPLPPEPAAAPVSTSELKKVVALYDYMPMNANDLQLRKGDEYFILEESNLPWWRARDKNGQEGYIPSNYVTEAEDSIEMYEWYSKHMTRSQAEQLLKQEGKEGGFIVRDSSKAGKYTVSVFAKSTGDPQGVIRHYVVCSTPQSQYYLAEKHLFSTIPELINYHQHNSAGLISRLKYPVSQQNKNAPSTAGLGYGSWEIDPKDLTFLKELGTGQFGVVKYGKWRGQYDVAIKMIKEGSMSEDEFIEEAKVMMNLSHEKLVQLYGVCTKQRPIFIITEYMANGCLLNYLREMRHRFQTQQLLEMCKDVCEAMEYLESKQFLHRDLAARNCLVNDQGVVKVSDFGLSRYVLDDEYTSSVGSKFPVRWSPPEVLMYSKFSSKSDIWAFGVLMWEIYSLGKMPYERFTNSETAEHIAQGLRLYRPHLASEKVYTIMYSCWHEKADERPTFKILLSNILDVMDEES

Compound: CC(C)(O)c1ccc2c(c1)[nH]c(=O)c1ccc(-c3cccc(-n4c(=O)[nH]c5c(F)cccc5c4=O)c3F)n12
- IC50 [1]: 0.0216 µM
- IC50 (Ramos): 8 µM
- MRT last at 5 h [2]: 1.48 h
- inhibition [3]: Active
- inhibition [4]: Dose-dependent-effect
- inhibition [5]: Dose-dependent-effect
- Activity (U-937 [6]): Dose-dependent-effect
- inhibition in vivo at 100 mg/kg (U-937 [7]): 74.9%
- Activity [8]: Non-toxic
- Activity [9]: Non-toxic
- Activity [10]: Non-toxic
- Activity [11]: Non-toxic
